Experimental data taken from PubChem BioAssay (NCI).
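Interpolation was linear, between the two tested concentrations surrounding the appropriate level; five concentrations were tested over 48 hours in 96-well plates. The concentration for 50% growth inhibition is given as GI50. TGI is the concentration that stops growth completely.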

How the values were obtained:
Assay in all cases: NCI tumour cell line growth inhibition, 48 h; in the data active = GI50 below about 0.43 µM; inactive = the rest
[1] = tested on: M14 melanoma
[2] = tested on: SK-MEL-28 melanoma
[3] = tested on: SNB-75 CNS
[4] = tested on: HL-60(TB) leukemia
[5] = tested on: IGROV1 ovarian
[6] = tested on: U251 CNS
[7] = tested on: UACC-62 melanoma
[8] = tested on: OVCAR-5 ovarian
[9] = tested on: LXFL 529 NSCLC
[10] = tested on: KM12 colon
[11] = tested on: HOP-92 NSCLC
[12] = tested on: HCT-116 colon
[13] = tested on: UACC-257 melanoma
[14] = tested on: NCI-H522 lung
[15] = tested on: SNB-78 CNS
[16] = tested on: COLO 205 colon
[17] = tested on: KM20L2 colon
[18] = tested on: M19-MEL melanoma
[19] = tested on: HT29 colon
[20] = tested on: OVCAR-3 ovarian
[21] = tested on: DMS 114 small cell lung
[22] = tested on: RPMI-8226 leukemia
[23] = tested on: MOLT-4 leukemia
[24] = tested on: NCI-H460 lung
[25] = tested on: HOP-62 NSCLC
[26] = tested on: SR leukemia
[27] = tested on: HCC-2998 colon
[28] = tested on: NCI-H23 lung
[29] = tested on: UO-31 renal
[30] = tested on: SK-OV-3 ovarian
[31] = tested on: SK-MEL-2 melanoma
[32] = tested on: SF-268 CNS
[33] = tested on: OVCAR-4 ovarian
[34] = tested on: ACHN renal
[35] = tested on: SF-539 CNS
[36] = tested on: SF-295 CNS
[37] = tested on: SNB-19 CNS
[38] = tested on: EKVX NSCLC
[39] = tested on: HCT-15 colon
[40] = tested on: TK-10 renal
[41] = tested on: A549 NSCLC
[42] = tested on: OVCAR-8 ovarian
[43] = tested on: CAKI-1 renal
[44] = tested on: NCI-H226 lung
[45] = tested on: 786-0 renal
[46] = tested on: MALME-3M melanoma
[47] = tested on: LOX IMVI melanoma
[48] = tested on: K-562 leukemia
[49] = tested on: SK-MEL-5 melanoma
[50] = tested on: A498 renal
[51] = tested on: SN12C renal
[52] = tested on: SW-620 colon
[53] = tested on: RXF 393 renal
[54] = tested on: CCRF-CEM leukemia
[55] = tested on: MDA-MB-435
[56] = tested on: DU-145 prostate
[57] = tested on: NCI/ADR-RES ovarian
[58] = tested on: BT-549 breast
[59] = tested on: MDA-MB-231 breast
[60] = tested on: HS 578T breast
[61] = tested on: PC-3 prostate
[62] = tested on: MDA-N
[63] = tested on: MCF7 breast
[64] = tested on: T-47D breast

Cc1cnc2cc(Cl)ccc2c1NCCN(CC(C)C)CC(C)C
> 100 µM: TGI [1] | TGI [2] | TGI [3] | TGI [4] | TGI [5] | TGI [6] | TGI [7] | TGI [8] | TGI [9] | TGI [10] | TGI [12] | TGI [13] | TGI [14] | TGI [15] | TGI [16] | TGI [17] | TGI [18] | TGI [19] | TGI [20] | TGI [21] | TGI [22] | TGI [23] | TGI [24] | TGI [25] | TGI [26] | TGI [27] | TGI [28] | TGI [29] | TGI [30] | TGI [31] | TGI [32] | TGI [33] | TGI [34] | TGI [35] | TGI [36]
85.3 µM: TGI [11]

O=C([CH-]C(=O)c1ccccc1)c1ccccc1.O=C([CH-]C(=O)c1ccccc1)c1ccccc1.[CH2-]CCC.[CH2-]CCC.[Sn+4]
1.67 µM: TGI [37]
0.325 µM: TGI [52]
0.606 µM: TGI [4]
active: GI50 [1] 0.394 µM | GI50 [40] 0.38 µM | GI50 [4] 0.169 µM | GI50 [43] 0.067 µM | GI50 [44] 0.26 µM | GI50 [14] 0.0293 µM | GI50 [45] 0.313 µM | GI50 [46] 0.271 µM | GI50 [16] 0.31 µM | GI50 [47] 0.405 µM | GI50 [22] 0.11 µM | GI50 [23] 0.253 µM | GI50 [48] 0.15 µM | GI50 [49] 0.25 µM | GI50 [31] 0.223 µM | GI50 [50] 0.369 µM | GI50 [52] 0.133 µM | GI50 [53] 0.128 µM
1.56 µM: TGI [6]
0.13 µM: TGI [14]
2.28 µM: TGI [10] | TGI [12]
0.462 µM: TGI [43]
1.94 µM: TGI [35]
1.5 µM: TGI [50]
0.938 µM: TGI [44]
3.51 µM: TGI [8]
1.75 µM: TGI [51]
0.883 µM: TGI [31]
2.14 µM: TGI [39]
0.746 µM: TGI [48]
2.46 µM: TGI [42]
1.92 µM: TGI [27]
1.83 µM: TGI [7]
0.754 µM: TGI [23]
1.6 µM: TGI [34]
3.41 µM: TGI [25]
1.21 µM: TGI [49]
inactive: GI50 [37] 0.441 µM | GI50 [38] 1.17 µM | GI50 [39] 0.636 µM | GI50 [41] 1.82 µM | GI50 [3] 1.04 µM | GI50 [5] 1.21 µM | GI50 [42] 0.939 µM | GI50 [6] 0.45 µM | GI50 [7] 0.558 µM | GI50 [8] 2.06 µM | GI50 [10] 0.728 µM | GI50 [12] 0.917 µM | GI50 [17] 1.57 µM | GI50 [20] 0.758 µM | GI50 [24] 1.76 µM | GI50 [25] 1.95 µM | GI50 [27] 0.519 µM | GI50 [29] 1.08 µM | GI50 [51] 0.509 µM | GI50 [32] 0.458 µM | GI50 [34] 0.457 µM | GI50 [35] 0.587 µM | GI50 [36] 1.12 µM
2.7 µM: TGI [38]
2.13 µM: TGI [20]
1.23 µM: TGI [16]
1.35 µM: TGI [45] | TGI [46]
2.29 µM: TGI [3] | TGI [29]
4.14 µM: TGI [24]
0.416 µM: TGI [53]
1.11 µM: TGI [40]
4.12 µM: TGI [41]
0.334 µM: TGI [22]
1.86 µM: TGI [32]
1.59 µM: TGI [1] | TGI [47]
2.35 µM: TGI [36]
3.11 µM: TGI [17]
2.79 µM: TGI [5]

O=C(Nn1c(-c2ccccc2)nc2ccccc2c1=O)c1ccc([N+](=O)[O-])cc1
> 100 µM: TGI [37] | TGI [38] | TGI [39] | TGI [54] | TGI [1] | TGI [40] | TGI [2] | TGI [41] | TGI [3] | TGI [4] | TGI [5] | TGI [42] | TGI [6] | TGI [7] | TGI [8] | TGI [55] | TGI [10] | TGI [44] | TGI [56] | TGI [11] | TGI [13] | TGI [14] | TGI [45] | TGI [46] | TGI [57] | TGI [16] | TGI [58] | TGI [59] | TGI [60] | TGI [19] | TGI [20] | TGI [47] | TGI [22] | TGI [23] | TGI [24] | TGI [25] | TGI [26] | TGI [27] | TGI [48] | TGI [28] | TGI [61] | TGI [62] | TGI [29] | TGI [30] | TGI [49] | TGI [50] | TGI [63] | TGI [51] | TGI [64] | TGI [32] | TGI [52] | TGI [33] | TGI [34] | TGI [35] | TGI [53] | TGI [36]
